Results from patent US20240090503A1, “FUNGICIDAL OXADIAZOLES AND THEIR MIXTURES” (FMC CORPORATION, priority 2020, published 2024).
Marks after values point to notes of the source that are not given here.

Assays:
Type in all cases: in vivo
[1] = system: Puccinia recondita f. sp. tritici (the causal agent of wheat leaf rust); assay: Test C: preventive spray on wheat seedlings, wheat leaf rust, visual disease rating; conditions: wheat seedlings; for pest or weed control at 10 µg/mL: read-out: Test C disease control rating
Outline: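 Wheat seedlings sprayed to run-off with compound in acetone/water (50/50) with 250 ppm PEG400, then inoculated with spores the following day. After 24 h saturated humidity at 20° C. and 6 days in growth chamber at 20° C., disease rated visually as % control relative to untreated controls.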

[2] = system: Phakopsora pachyrhizi (the causal agent of Asian soybean rust); assay: Test A: preventive spray on soybean seedlings, Asian soybean rust, visual disease rating; conditions: soybean seedlings; for pest or weed control at 10 µg/mL: read-out: Test A disease control rating
Outline: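 Preventive test: soybean seedlings received a run-off spray of compound suspended at the set ppm in 50/50 acetone/water plus 250 ppm PEG400, and one day later a P. pachyrhizi spore inoculum. Visual scoring (0 none to 100 full disease control) followed 24 h saturated incubation and 8 days' growth chamber, both at 22° C.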

[3] = system: Zymoseptoria tritici (the causal agent of wheat leaf blotch); assay: Test B: preventive spray on wheat seedlings, wheat leaf blotch, visual disease rating; conditions: wheat seedlings; for pest or weed control at 100 µg/mL: read-out: Test B disease control rating
Excerpt: General protocol for preparing test suspensions for Tests A-D: the test compounds were first dissolved in acetone in an amount equal to 3% of the final volume and then suspended at the desired concentration (in ppm) in acetone and purified water (50/50 mix by volume) containing 250 ppm of the surfactant PEG400 (polyhydric alcohol esters). The resulting test suspensions were then used in Tests A-D.
The test suspension was sprayed to the point of run-off on wheat seedlings. The following day the seedlings were inoculated with a spore suspension of Zymoseptoria tritici (the causal agent of wheat leaf blotch) and incubated in a saturated atmosphere at 24° C. for 48 h, and then moved to a growth chamber at 20° C. for 17 days, after which time visual disease ratings were made.
The test results for Tests A-C presented in Table A below for compounds of Formula 1 illustrate the fungicidal activity of component (a) contributing to the plant disease control utility of compositions comprising component (a) in combination with component (b) according to the present invention. In the Table, a rating of 100 indicates 100% disease control and a rating of 0 indicates no disease control (relative to the controls). A dash (-) indicates the compound was not tested. The test suspensions were sprayed at the concentration listed in the column “Rate in ppm”, unless otherwise indicated. An asterisk “*” next to the rating indicates a 250 ppm test suspension was used, a double asterisk “**” next to the rating indicates a 100 ppm test suspension was used, and a triple asterisk “***” next to the rating indicates a 50 ppm test suspension was used.

[4] = Puccinia recondita, 168 h, test suspension 10 ppm
[5] = Phakopsora pachyrhizi, 216 h, test suspension 10 ppm, 100 = 100% disease control, 0 = no control
[6] = Zymoseptoria tritici, 456 h, test suspension 100 ppm (** next to rating)
[7] = 10 ppm test suspension, 100 = 100% disease control, 0 = no control
[8] = 250 ppm test suspension, 100 = 100% disease control
[9] = test suspension 10 ppm, 100 = 100% disease control, 0 = no control
[10] = test suspension 100 ppm (** next to rating)
[11] = Zymoseptoria tritici, 456 h, test suspension 250 ppm

SMILES	Test C disease control rating ([1]; test suspension 10 ppm)	Test A disease control rating [2, 9]	Test B disease control rating ([3]; test suspension 250 ppm)	other results
CCCOC(=O)c1cnn(Cc2ccc(-c3noc(C(F)(F)F)n3)s2)c1 [Compound 198, propyl 1-[[5-[5-(trifluoromethyl)-1,2,4-oxadiazol-3-yl]-2-thienyl]methyl]-1H-pyrazole-4-carboxylate]				pest or weed control at 10 µg/mL [1, 4]: 99%; pest or weed control at 10 µg/mL [2, 5]: 100%; pest or weed control at 100 µg/mL [3, 6]: 94%
CCOC(=O)c1csc(COc2ccc(-c3noc(C(F)(F)F)n3)cc2)n1 [compound 404]				Test C disease control rating [1, 7]: 68%; Test A disease control rating [2, 7]: 0%; Test B disease control rating [3, 8]: 0* %
C=CCOC(=O)c1cnn(Cc2ccc(-c3noc(C(F)(F)F)n3)cc2)c1 [compound 166]	100%	100%		Test B disease control rating [3, 10]: 90** %
C=C(C)COC(=O)c1cnn(Cc2ccc(-c3noc(C(F)(F)F)n3)cc2)c1 [compound 170]	100%	100%		Test B disease control rating [3, 10]: 97** %
COc1cccc(Cn2ccc(-c3noc(C(F)(F)F)n3)cc2=O)c1 [compound 233]				pest or weed control at 50 µg/mL ([1]; Puccinia recondita, 168 h, test suspension 50 ppm): 100%; pest or weed control at 50 µg/mL ([2]; Phakopsora pachyrhizi, 216 h, test suspension 50 ppm): 97%; pest or weed control at 250 µg/mL [3, 11]: 90%
CC(C)COC(=O)c1coc(Cc2ccc(-c3noc(C(F)(F)F)n3)cc2)n1 [compound 335]	94%	100%	73* %	
N#CCNC(=O)c1coc(COc2ccc(-c3noc(C(F)(F)F)n3)cc2)n1 [compound 468]				Test C disease control rating [1, 7]: 0%; Test A disease control rating [2, 7]: 84%; Test B disease control rating [3, 8]: 22* %
CCOC(=O)c1cnn(CCCn2nc(-c3noc(C(F)(F)F)n3)ccc2=O)c1 [compound 358]	0%	0%	0* %	
FC(F)(F)c1nc(-c2ccc(OCn3cncn3)cc2)no1 [Compound 337]	82%	99%	78* %	
NC(=O)c1coc(Cc2ccc(-c3noc(C(F)(F)F)n3)cc2)n1 [compound 254]	100%	100%	70* %	
N#CCNC(=O)c1coc(Cc2ccc(-c3noc(C(F)(F)F)n3)cc2)n1 [compound 258]	99%	100%	99* %	
COC(=O)c1cnc(Oc2ccc(-c3noc(C(F)(F)F)n3)cc2)s1 [compound 452]				Test C disease control rating [1, 7]: 0%; Test A disease control rating [2, 7]: 81%; Test B disease control rating [3, 8]: 59* %
COCCNC(=O)c1cnn(COc2ccc(-c3noc(C(F)(F)F)n3)cc2)c1 [compound 213]	74%	100%	82* %	
O=C(NCCn1cccn1)c1csc(Cc2ccc(-c3noc(C(F)(F)F)n3)cc2)n1 [compound 396]				Test C disease control rating [1, 7]: 100%; Test A disease control rating [2, 7]: 100%; Test B disease control rating [3, 8]: 28* %
CN(C)C(=O)c1cc(COc2ccc(-c3noc(C(F)(F)F)n3)cc2)on1 [compound 314]	0%	99%	86* %	
O=C(c1coc(Cc2ccc(-c3noc(C(F)(F)F)n3)cc2)n1)N1CCC(F)(F)CC1 [compound 228]	79%	100%	99* %	
O=C(NCC(F)(F)F)c1csc(COc2ccc(-c3noc(C(F)(F)F)n3)cc2)n1 [compound 470]				Test C disease control rating [1, 7]: 94%; Test A disease control rating [2, 7]: 100%; Test B disease control rating [3, 8]: 0* %

SMILES	Test C disease control rating ([1]; test suspension 10 ppm)	Test A disease control rating [2, 9]	Test B disease control rating ([3]; test suspension 250 ppm)	other results
FC(F)(F)c1nc(-c2ccc(Cn3ccc(-c4ccc(Cl)cc4)n3)cc2)no1 [compound 122]			0%	Test C disease control rating ([1]; test suspension 250 ppm): 68%; Test A disease control rating ([2]; test suspension 250 ppm): 100%
FC(F)(F)c1ccn(Cc2ccc(-c3noc(C(F)(F)F)n3)cc2)n1 [compound 153]			0%	Test C disease control rating ([1]; test suspension 250 ppm): 89%; Test A disease control rating ([2]; test suspension 250 ppm): 100%
FC(F)(F)c1nc(-c2ccc(OCc3nc4ccccc4o3)cc2)no1 [compound 355]	0%	0%	4* %	
O=C(NCCn1cccn1)c1cnn(COc2ccc(-c3noc(C(F)(F)F)n3)cc2)c1 [compound 215]	74%	99%	90* %	
O=C1c2ccccc2C(=O)N1Cc1ccc(-c2noc(C(F)(F)F)n2)cc1 [Compound 90, 2-[[4-[5-(trifluoromethyl)-1,2,4-oxadiazol-3-yl]phenyl]methyl]-1H-isoindole-1,3(2H)-dione]				pest or weed control at 250 µg/mL ([1]; Puccinia recondita, 168 h, test suspension 250 ppm): 99%; pest or weed control at 250 µg/mL ([2]; Phakopsora pachyrhizi, 216 h, test suspension 250 ppm): 100%; pest or weed control at 250 µg/mL [3, 11]: 33%
O=C(NCc1nccs1)c1coc(Cc2ccc(-c3noc(C(F)(F)F)n3)cc2)n1 [compound 277]	100%	100%	99* %	
O=C(NC1CCC(F)(F)CC1)c1coc(Cc2ccc(-c3noc(C(F)(F)F)n3)cc2)n1 [compound 395]				Test C disease control rating [1, 7]: 97%; Test A disease control rating [2, 7]: 95%; Test B disease control rating [3, 8]: 0* %
N#CCOC(=O)c1cnn(Cc2ccc(-c3noc(C(F)(F)F)n3)cc2)c1 [Compound 57, cyanomethyl 1-[[4-[5-(trifluoromethyl)-1,2,4-oxadiazol-3-yl]phenyl]methyl]-1H-pyrazole-4-carboxylate]				pest or weed control at 10 µg/mL [1, 4]: 100%; pest or weed control at 10 µg/mL [2, 5]: 100%; pest or weed control at 100 µg/mL [3, 6]: 99%
COCCNC(=O)c1coc(COc2ccc(-c3noc(C(F)(F)F)n3)cc2)n1 [compound 464]				Test C disease control rating [1, 7]: 23%; Test A disease control rating [2, 7]: 79%; Test B disease control rating [3, 8]: 94* %
CCNC(=O)C1=NOC(Cc2ccc(-c3noc(C(F)(F)F)n3)cc2)C1 (stereo not drawn) [compound 175]				Test C disease control rating ([1]; test suspension 255 ppm): 100%; Test A disease control rating ([2]; test suspension 255 ppm): 100%; Test B disease control rating ([3]; test suspension 255 ppm): 95%
O=[N+]([O-])c1ccc2c(cnn2Cc2ccc(-c3noc(C(F)(F)F)n3)cc2)c1 [compound 94]			35%	Test C disease control rating ([1]; test suspension 250 ppm): 78%; Test A disease control rating ([2]; test suspension 250 ppm): 100%
O=C(c1coc(Cc2ccc(-c3noc(C(F)(F)F)n3)cc2)n1)N1CCC1 [compound 261]	99%	100%	88* %	
O=C(c1coc(Cc2ccc(-c3noc(C(F)(F)F)n3)cc2)n1)N1CCC(F)(F)C1 [Compound 402, (3,3-difluoro-1-pyrrolidinyl)[2-[[4-[5-(trifluoromethyl)-1,2,4-oxadiazol-3-yl]phenyl]methyl]-4-oxazolyl]methanone]				pest or weed control at 10 ppm ([1]; Puccinia recondita, 168 h, 10 ppm test suspension, 100 = 100% disease control, 0 = no control): 90%; pest or weed control at 10 ppm ([2]; Phakopsora pachyrhizi, 216 h, 10 ppm test suspension, 100 = 100% disease control, 0 = no control): 100%; pest or weed control at 250 ppm ([3]; Zymoseptoria tritici, 456 h, 250 ppm test suspension, 100 = 100% disease control): 96%
O=C(OCC1CC1)c1cnn(COc2ccc(-c3noc(C(F)(F)F)n3)cc2)c1 [compound 216]	74%	100%	9* %	
COCC(COC)NC(=O)c1coc(Cc2ccc(-c3noc(C(F)(F)F)n3)cc2)n1 [compound 279]	100%	100%	94* %	
O=C(NC1CC1)c1csc(Cc2ccc(-c3noc(C(F)(F)F)n3)cc2)n1 [compound 342]	100%	100%	99* %	
